According to patent US8420676B2, “Oxazolidinone derivatives” (Dong-A Pharmaceuticals Co. Ltd., priority 2003, dated 2013):
≈ marks a conversion by molar mass, not a printed value.

Tests used:
[1] = tested on: vancomycin resistant Enterococci (VRE); experiment: Assay for in vitro antibacterial activity, agar dilution (VRE); details: Enterococcus, read-out: Minimum Inhibitory Concentration (MIC50) VRE
[2] = tested on: methicillin resistant Staphylococcus aureus (MRSA); experiment: Assay for in vitro antibacterial activity, agar dilution (MRSA); details: read-out: Minimum Inhibitory Concentration (MIC50) MRSA

Structure (SMILES) | MIC50 [1] [µg/mL] | MIC50 [2] [µg/mL]
CC(=O)NC[C@H]1CN(c2ccc(-c3ccc(-c4nc(CO)cs4)cc3)c(F)c2)C(=O)O1 [Compound 28, (S)-3-(4-(4-(4-hydroxymethylthiazol-2-yl)phenyl)-3-fluorophenyl)-2-oxo-5-oxazolidinylmethyl acetamide] | 0.5 (≈ 1.13 µM) | 0.5 (≈ 1.13 µM)
Cn1nnc(-c2ccc(-c3ccc(N4C[C@H](COP(=O)(O)O)OC4=O)cc3F)cn2)n1 [Compound 72, mono-[(R)-[3-(4-(2-(2-methyltetrazol-5-yl)pyridin-5-yl)-3-fluorophenyl)-2-oxo-5-oxazolidinyl]methyl]phosphate] | 32 (≈ 71.1 µM) | 32 (≈ 71.1 µM)
CC(=O)NC[C@H]1CN(c2ccc(-c3ccc(-c4nc(CC#N)cs4)cc3)c(F)c2)C(=O)O1 [Compound 31, (S)-3-(4-(4-(4-cyanomethylthiazol-2-yl)phenyl)-3-fluorophenyl)-2-oxo-5-oxazolidinylmethyl acetamide] | 0.5 (≈ 1.11 µM) | 0.5 (≈ 1.11 µM)
CC(=O)NC[C@H]1CN(c2ccc(-c3ccc(N4CCC(OC(=O)CN)C4=O)nc3)c(F)c2)C(=O)O1 (stereo partly drawn) [Compound 5, (S)-3-(4-(2-(2-oxo-3-glycyloxypyrrolidine-1-yl)pyridin-5-yl)-3-fluorophenyl)-2-oxo-5-oxazolidinylmethyl acetamide trifluoroacetic acid] | 0.25 (≈ 0.515 µM) | 0.5 (≈ 1.03 µM)
NCC(=O)OC[C@H]1CN(c2ccc(-c3ccc(-n4nccn4)nc3)c(F)c2)C(=O)O1 [Compound 35, (R)-3-(4-(2-([1,2,3]triazol-2-yl)pyridin-5-yl)-3-fluorophenyl)-5-glycyloxymethyl oxazolidin-2-one trifluoroacetic acid] | 1 (≈ 2.42 µM) | 1 (≈ 2.42 µM)
CC(=O)NC[C@H]1CN(c2ccc(-c3ccc(-c4cc(COC(=O)CN)on4)nc3)c(F)c2)C(=O)O1 [Compound 3, (S)-3-(4-(2-(5-glycyloxymethylisoxazol-3-yl)pyridin-5-yl)-3-fluorophenyl)-2-oxo-5-oxazolidinylmethyl acetamide trifluoroacetic acid] | 0.25 (≈ 0.517 µM) | 0.25 (≈ 0.517 µM)
COC[C@H]1CN(c2ccc(-c3ccc(-c4nnn(C)n4)nc3)c(F)c2)C(=O)O1 [Compound 33, (R)-3-(4-(2-(2-methyltetrazol-5-yl)pyridin-5-yl)-3-fluorophenyl)-5-methoxymethyl oxazolidin-2-one] | 2 (≈ 5.2 µM) | 2 (≈ 5.2 µM)
N#CCc1csc(-c2ccc(-c3ccc(N4C[C@H](CO)OC4=O)cc3F)cc2)n1 [Compound 32, (R)-3-(4-(4-(4-cyanomethylthiazol-2-yl)phenyl)-3-fluorophenyl)-5-hydroxymethyl oxazolidin-2-one] | 1 (≈ 2.44 µM) | 0.5 (≈ 1.22 µM)
CC(=O)NC[C@H]1CN(c2ccc(-c3ccc(-n4nccn4)nc3)c(F)c2)C(=O)O1 [Compound 25, (S)-3-(4-(2-([1,2,3]triazol-2-yl)pyridin-5-yl)-3-fluorophenyl)-2-oxo-5-oxazolidinylmethyl acetamide] | 0.125 (≈ 0.315 µM) | 0.25 (≈ 0.631 µM)
CC(=O)NC[C@H]1CN(c2ccc(-c3ccc(-c4nc(C)c(C)o4)nc3)c(F)c2)C(=O)O1 [Compound 15] | 1 (≈ 2.36 µM) | 1 (≈ 2.36 µM)
Cl.NC[C@H]1CN(c2ccc(-c3ccc(-n4ccnc4)nc3)c(F)c2)C(=O)O1 [Compound 19, (S)-3-(4-(2-(imidazole-1-yl)pyridin-5-yl)-3-fluorophenyl)-5-aminomethyl oxazolidin-2-one hydrochloride] | 32 | 32
CN(C)CC1CN(c2ccc(-c3ccc(-c4nnn(C)n4)nc3)c(F)c2)C(=O)O1 (stereo in doubt) [Compound 40, (R)-3-(4-(2-(2-methyltetrazol-5-yl)pyridin-5-yl)-3-fluorophenyl)-5-(N,N-dimethylaminomethyl)oxazolidin-2-one] | 8 (≈ 20.1 µM) | 4 (≈ 10.1 µM)
Cc1nnc(-c2ccc(-c3ccc(N4C[C@H](Cn5ccnn5)OC4=O)cc3F)cn2)o1 [Compound 13, (R)-3-(4-(2-(2-methyl-[1,3,4]oxadiazol-5-yl)pyridin-5-yl)-3-fluorophenyl)-5-([1,2,3]triazol-1-yl)methyl oxazolidin-2-one] | 0.25 (≈ 0.593 µM) | 0.25 (≈ 0.593 µM)
